Results taken from article PMC6891475, “Synthesis and Antiproliferative Evaluation of Novel Hybrids of Dehydroabietic Acid Bearing 1,2,3-Triazole Moiety” (Molecules, 2019).

Assays:
[1] = tested on: human liver cancer cell (HepG2); test: MTT antiproliferative assay, HepG2; type: cell-based
Experimental: (§1) The antiproliferative activities of the 16 library members were tested against four human cancer cell lines including human nasopharyngeal carcinoma cell (CNE-2), human liver cancer cell (HepG2), human hepatocellular carcinoma cell (BEL-7402), human cervical cancer cells (HeLa), and human normal liver cell (HL-7702) using MTT assay according the reported literature method.
(§2) All the compounds (3a–p) were evaluated for their in vitro cytotoxicity against the following human cancer cell lines including CNE-2, HepG2, BEL-7402, Hela and normal liver cell HL-7702 by MTT assay. The cell lines were plated in 96-well plates at density of 5×10^3 cells/well and maintained at 37 °C with 5% CO2. The target compounds 3a–p dissolved in DMSO and further dilutions were made with DMEM, with cisplatin as the positive control. The concentration of the compounds used were 0.8, 4, 20, 100 μM. After the treatment of another 48 h and 72 h with different concentration of the samples (0.8, 4, 20, 100 μM), Therewith, 20 μL of MTT (5 mg/mL) was added and incubated for about 4 h. The medium was thrown away and the purple formazan precipitations were dissolved in 150 μL DMSO. The O. D. Value was measured at 490 nm in an enzyme labeling instrument.

[2] = tested on: human nasopharyngeal carcinoma cell (CNE-2); test: MTT antiproliferative assay, CNE-2; type: cell-based
Experimental: as §1, §2

[3] = tested on: human normal liver cell (HL-7702); test: MTT cytotoxicity assay, HL-7702 normal cells; type: cell-based; settings: for IC50: mean ± SD from three independent experiments; for cytotoxicity on the human normal liver cell (HL-7702), in words: qualitative statement
Experimental: as §1, §2

[4] = tested on: human cervical cancer cells (HeLa); test: MTT antiproliferative assay, HeLa; type: cell-based; settings: mean ± SD from three independent experiments
Experimental: as §1, §2

[5] = tested on: human hepatocellular carcinoma cell (BEL-7402); test: MTT antiproliferative assay, BEL-7402; type: cell-based
Experimental: as §1, §2

[6] = mean ± SD from three independent experiments
[7] = Homo sapiens, HepG2, mean ± SD from three independent experiments
[8] = Homo sapiens, CNE-2, mean ± SD from three independent experiments
[9] = Homo sapiens, L02, normal liver cell
[10] = Homo sapiens, Bel-7402, mean ± SD from three independent experiments

## N.N.[Cl][Pt][Cl] [Cisplatin, cisplatin, reference compound]
[1]; [6]
  IC50: 6.42 ± 0.18 µM
[2]; [6]
  IC50: 8.75 ± 0.24 µM
[3]; normal liver cell
  IC50: 20.8 ± 0.83 µM
[4]
  IC50: 1.94 ± 0.2 µM
[5]; [6]
  IC50: 12.7 ± 0.33 µM

## CC(C)c1ccc2c(c1)CCC1[C@](C)(C(=O)OCc3cn(Cc4ccccc4)nn3)CCC[C@]21C (stereo partly shown) [Compound 3a, (1-benzyl-1H-1,2,3-triazole-4-yl)dehydroabietic acid methyl ester]
[1]; [7]
  IC50: > 100 µM
[2]; [8]
  IC50: 33.4 ± 0.33 µM
[3]; [9]
  IC50: > 100 µM
[4]; Homo sapiens
  IC50: 67.88 ± 0.56 µM
other
  melting point: 181 to 183.4 °C
[5]; [10]
  IC50: 36.4 ± 70 µM

## CC(C)c1ccc2c(c1)CCC1[C@](C)(C(=O)OCc3cn(Cc4ccccc4F)nn3)CCC[C@]21C (stereo partly shown) [Compound 3b, [1-(2-fluorobenzyl)-1H-1,2,3-triazole-4-yl]dehydroabietic acid methyl ester]
[1]; [7]
  IC50: 25.9 ± 0.27 µM
[2]; [8]
  IC50: 21.4 ± 0.52 µM
[3]; [9]
  IC50: > 100 µM
[4]; Homo sapiens
  IC50: 17.8 ± 0.31 µM
other
  melting point: 122.4 to 125.8 °C
[5]; [10]
  IC50: 18.6 ± 0.82 µM

## CC(C)c1ccc2c(c1)CCC1[C@](C)(C(=O)OCc3cn(Cc4cccc(F)c4)nn3)CCC[C@]21C (stereo partly shown) [Compound 3c, [1-(3-fluorobenzyl)-1H-1,2,3-triazole-4-yl]dehydroabietic acid methyl ester]
[1]; [7]
  IC50: 5.9 ± 0.41 µM
[2]; [8]
  IC50: 10.9 ± 0.21 µM
[3]; [9]
  IC50: > 100 µM
[3]
  cytotoxicity on the human normal liver cell (HL-7702), in words: lower cytotoxicity
[4]; Homo sapiens
  IC50: 20.1 ± 0.54 µM
other
  melting point: 175.7 to 178.3 °C
[5]; [10]
  IC50: 16.72 ± 0.06 µM

## CC(C)c1ccc2c(c1)CCC1[C@](C)(C(=O)OCc3cn(Cc4ccc(F)cc4)nn3)CCC[C@]21C (stereo partly shown) [Compound 3d, [1-(4-fluorobenzyl)-1H-1,2,3-triazole-4-yl]dehydroabietic acid methyl ester]
[1]; [7]
  IC50: 20.6 ± 0.09 µM
[2]; [8]
  IC50: 12.2 ± 0.33 µM
[3]; [9]
  IC50: > 100 µM
[4]; Homo sapiens
  IC50: 22.3 ± 0.35 µM
other
  melting point: 183 to 186.3 °C
[5]; [10]
  IC50: 14.8 µM

## CC(C)c1ccc2c(c1)CCC1[C@](C)(C(=O)OCc3cn(Cc4ccccc4Cl)nn3)CCC[C@]21C (stereo partly shown) [Compound 3e, [1-(2-chlorobenzyl)-1H-1,2,3-triazole-4-yl]dehydroabietic acid methyl ester]
[1]; [7]
  IC50: 45.08 ± 0.33 µM
[2]; [8]
  IC50: 74.88 ± 0.14 µM
[3]; [9]
  IC50: > 100 µM
[4]; Homo sapiens
  IC50: 44.28 ± 0.43 µM
other
  melting point: 80.6 to 84.3 °C
[5]; [10]
  IC50: 25.1 ± 0.32 µM

## CC(C)c1ccc2c(c1)CCC1[C@](C)(C(=O)OCc3cn(Cc4cccc(Cl)c4)nn3)CCC[C@]21C (stereo partly shown) [Compound 3f, [1-(3-chlorobenzyl)-1H-1,2,3-triazole-4-yl]dehydroabietic acid methyl ester]
[1]; [7]
  IC50: 22.3 ± 0.35 µM
[2]; [8]
  IC50: 59.03 ± 0.28 µM
[3]; [9]
  IC50: > 100 µM
[4]; Homo sapiens
  IC50: 53.78 ± 0.32 µM
other
  melting point: 153.2 to 155.5 °C
[5]; [10]
  IC50: 26.09 ± 0.15 µM

## CC(C)c1ccc2c(c1)CCC1[C@](C)(C(=O)OCc3cn(Cc4ccc(Cl)cc4)nn3)CCC[C@]21C (stereo partly shown) [Compound 3g, [1-(4-chlorobenzyl)-1H-1,2,3-triazole-4-yl]dehydroabietic acid methyl ester]
[1]; [7]
  IC50: > 100 µM
[2]; [8]
  IC50: 60.7 ± 66 µM
[3]; [9]
  IC50: > 100 µM
[4]; Homo sapiens
  IC50: > 100 µM
other
  melting point: 176.9 to 179.2 °C
[5]; [10]
  IC50: 38 ± 0.48 µM

## CC(C)c1ccc2c(c1)CCC1[C@](C)(C(=O)OCc3cn(Cc4ccccc4Br)nn3)CCC[C@]21C (stereo partly shown) [Compound 3h, [1-(2-bromobenzyl)-1H-1,2,3-triazole-4-yl]dehydroabietic acid methyl ester]
[1]; [7]
  IC50: 35.42 ± 0.21 µM
[2]; [8]
  IC50: 48.3 ± 0.27 µM
[3]; [9]
  IC50: > 100 µM
[4]; Homo sapiens
  IC50: 25.9 ± 0.2 µM
other
  melting point: 95.1 to 97.3 °C
[5]; [10]
  IC50: 27.3 ± 0.36 µM

## CC(C)c1ccc2c(c1)CCC1[C@](C)(C(=O)OCc3cn(Cc4cccc(Br)c4)nn3)CCC[C@]21C (stereo partly shown) [Compound 3i, [1-(3-bromobenzyl)-1H-1,2,3-triazole-4-yl]dehydroabietic acid methyl ester]
[1]; [7]
  IC50: 40.7 ± 0.62 µM
[2]; [8]
  IC50: 44.14 ± 0.22 µM
[3]; [9]
  IC50: > 100 µM
[4]; Homo sapiens
  IC50: 56.08 ± 0.36 µM
other
  melting point: 146.1 to 148 °C
[5]; [10]
  IC50: 36.88 ± 0.23 µM

## CC(C)c1ccc2c(c1)CCC1[C@](C)(C(=O)OCc3cn(Cc4ccc(Br)cc4)nn3)CCC[C@]21C (stereo partly shown) [Compound 3j, [1-(4-bromobenzyl)-1H-1,2,3-triazole-4-yl]dehydroabietic acid methyl ester]
[1]; [7]
  IC50: 23.4 ± 0.32 µM
[2]; [8]
  IC50: > 100 µM
[3]; [9]
  IC50: > 100 µM
[4]; Homo sapiens
  IC50: 43.18 ± 0.22 µM
other
  melting point: 172.5 to 174 °C
[5]; [10]
  IC50: 14.5 ± 0.62 µM

## CC(C)c1ccc2c(c1)CCC1[C@](C)(C(=O)OCc3cn(Cc4ccccc4[N+](=O)[O-])nn3)CCC[C@]21C (stereo partly shown) [Compound 3k, [1-(2-nitrobenzyl)-1H-1,2,3-triazole-4-yl]dehydroabietic acid methyl ester]
[1]; [7]
  IC50: 6.25 ± 0.37 µM
[2]; [8]
  IC50: 44.9 ± 0.32 µM
[3]; [9]
  IC50: > 100 µM
[3]
  cytotoxicity on the human normal liver cell (HL-7702), in words: lower cytotoxicity
[4]; Homo sapiens
  IC50: > 100 µM
other
  melting point: 119.7 to 122.2 °C
[5]; [10]
  IC50: 18.6 ± 0.26 µM

## CC(C)c1ccc2c(c1)CCC1[C@](C)(C(=O)OCc3cn(Cc4cccc([N+](=O)[O-])c4)nn3)CCC[C@]21C (stereo partly shown) [Compound 3l, [1-(3-nitrobenzyl)-1H-1,2,3-triazole-4-yl]dehydroabietic acid methyl ester]
[1]; [7]
  IC50: 15.8 ± 0.64 µM
[2]; [8]
  IC50: 11.5 ± 0.18 µM
[3]; [9]
  IC50: > 100 µM
[4]; Homo sapiens
  IC50: 67.37 ± 0.33 µM
other
  melting point: 128.5 to 132.3 °C
[5]; [10]
  IC50: 15.4 ± 0.51 µM

## CC(C)c1ccc2c(c1)CCC1[C@](C)(C(=O)OCc3cn(Cc4ccc([N+](=O)[O-])cc4)nn3)CCC[C@]21C (stereo partly shown) [Compound 3m, [1-(4-nitrobenzyl)-1H-1,2,3-triazole-4-yl]dehydroabietic acid methyl ester]
[1]; [7]
  IC50: > 100 µM
[2]; [8]
  IC50: 19.6 ± 0.38 µM
[3]; [9]
  IC50: > 100 µM
[4]; Homo sapiens
  IC50: 22.5 ± 0.35 µM
other
  melting point: 173.9 to 176.7 °C
[5]; [10]
  IC50: 22.81 ± 0.22 µM

## Cc1cccc(Cn2cc(COC(=O)[C@]3(C)CCC[C@]4(C)c5ccc(C(C)C)cc5CCC34)nn2)c1 (stereo partly shown) [Compound 3n, [1-(3-methylbenzyl)-1H-1,2,3-triazole-4-yl]dehydroabietic acid methyl ester]
[1]; [7]
  IC50: 60.18 ± 0.39 µM
[2]; [8]
  IC50: > 100 µM
[3]; [9]
  IC50: > 100 µM
[4]; Homo sapiens
  IC50: 25.3 ± 0.81 µM
other
  melting point: 130.7 to 132.8 °C
[5]; [10]
  IC50: 23.6 ± 0.44 µM

## Cc1ccc(Cn2cc(COC(=O)[C@]3(C)CCC[C@]4(C)c5ccc(C(C)C)cc5CCC34)nn2)cc1 (stereo partly shown) [Compound 3o, [1-(4-methylbenzyl)-1H-1,2,3-triazole-4-yl]dehydroabietic acid methyl ester]
[1]; [7]
  IC50: 51.78 ± 0.43 µM
[2]; [8]
  IC50: > 100 µM
[3]; [9]
  IC50: > 100 µM
[4]; Homo sapiens
  IC50: 42.51 ± 0.37 µM
other
  melting point: 160.4 to 162 °C
[5]; [10]
  IC50: 41.9 ± 0.72 µM

## COc1cccc(Cn2cc(COC(=O)[C@]3(C)CCC[C@]4(C)c5ccc(C(C)C)cc5CCC34)nn2)c1 (stereo partly shown) [Compound 3p, [1-(3-methoxybenzyl)-1H-1,2,3-triazole-4-yl]dehydroabietic acid methyl ester]
[1]; [7]
  IC50: > 100 µM
[2]; [8]
  IC50: 80.98 ± 0.78 µM
[3]; [9]
  IC50: > 100 µM
[4]; Homo sapiens
  IC50: 24.66 ± 0.16 µM
other
  melting point: 106.5 to 108 °C
[5]; [10]
  IC50: 25.03 ± 0.22 µM

## CC(C)c1ccc2c(c1)CC[C@H]1[C@](C)(C(=O)O)CCC[C@]21C [DHAA, dehydroabietic acid]
[1]; [7]
  IC50: 80.4 ± 0.84 µM
[3]; [9]
  IC50: > 100 µM
[4]; Homo sapiens
  IC50: 37.4 ± 0.64 µM
